The results in this text go back to US20230365582A1, “NOVEL COMPOUNDS HAVING INHIBITORY ACTIVITY ON PROSTAGLANDIN E2 RECEPTOR AND USES THEREOF” (KANAPH THERAPEUTICS INC., priority 2020, published 2023).

One test has as its target T1, hEP2 (Homo sapiens, UniProt P43116).
T1 construct: expressed in transfected cells; host or cells: HEK293
Kind of test: hEP2 cAMP assay. The format is cell-based. The following applies: HEK293 cells overexpressing hEP2; PGE2 agonist 400 pM; graded per Table 21; read-out: IC50 (nM) EP2 cAMP. As to the method: HEK293 cells overexpressing hEP2 were cultured in growth medium (GM: MEM (Gibco™, 11095080)/10% HI FBS (Gibco™, 10082147)/1% penicillin/streptomycin). Before the experiment, the growth medium was removed, and starvation medium (HBSS (Gibco™, 14025076)/10% GM) was added. Thereafter, the cells were incubated for 4 hours. The HEK293 cells harboring hEP2 were detached from the culture dish with a non-enzymatic cell dissociation buffer (Gibco™, 15040066). The cells were resuspended in assay buffer (AB: HBSS, 0.1% BSA stabilizer, 0.5 mM IBMX, 5 mM HEPES).
(§1) 1,000 cells in 5 μL of AB were seeded per well in a 384 well plate (Corning™, 3570), and stock solutions of test compounds were prepared at a concentration of 1 mM in DMSO and serially diluted in DMSO to the concentration required for the inhibition dose response curve (test concentration range of 10 μM-0.001 nM). PGE2 (Sigma, P0409, stock solution: 1 μM) was used as an agonist at a final concentration of 400 pM corresponding to EC50-80. 2.5 μL of the diluted compound and 2.5 μL of PGE2 (400 pM final concentration) were transferred to the assay plate, and then the plate was incubated at room temperature for 12 minutes.
(§2) 5 μL of each donor (Eu-cAMP tracer) and acceptor (ULight-anti-cAMP) was added, and the plate was incubated in the dark for 1 hour at room temperature, and then a Varioskan LUX multimode microplate reader was used to obtain the results (excitation: 334 nm, emission: 615 and 665 nm). The resulting FRET fluorescence value (665 nm/615 nm*10000) was converted and then calculated as a percentage of cAMP relative to the DMSO control value. IC50 values and curves were generated with GraphPad Prism software using log (inhibitor) versus response-variable slopes (4 parameters), and the median of multiple experiments was taken as the experiment result.
In general terms: Cyclic AMP is a second messenger, typically raised through Gs and lowered through Gi signalling.

In the next test the target is T2, hEP4 (Homo sapiens, UniProt P35408).
T2 construct: expressed in transfected cells; host or cells: HEK293
T2 sequence (P35408 whole entry): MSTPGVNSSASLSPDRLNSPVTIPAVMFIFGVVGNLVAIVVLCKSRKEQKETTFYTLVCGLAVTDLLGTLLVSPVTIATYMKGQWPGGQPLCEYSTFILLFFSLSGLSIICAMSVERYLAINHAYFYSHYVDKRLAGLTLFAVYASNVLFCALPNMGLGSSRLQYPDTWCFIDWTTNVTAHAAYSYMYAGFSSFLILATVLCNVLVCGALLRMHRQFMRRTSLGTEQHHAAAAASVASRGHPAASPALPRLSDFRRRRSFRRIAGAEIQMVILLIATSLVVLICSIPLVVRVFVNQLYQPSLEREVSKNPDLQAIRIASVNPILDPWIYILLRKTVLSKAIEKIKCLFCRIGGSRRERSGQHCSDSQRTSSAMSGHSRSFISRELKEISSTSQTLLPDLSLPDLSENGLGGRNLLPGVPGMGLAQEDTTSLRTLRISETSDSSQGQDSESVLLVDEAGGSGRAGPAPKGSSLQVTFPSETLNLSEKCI
Kind of test: hEP4 cAMP assay. In kind it is cell-based. The following applies: HEK293 cells overexpressing hEP4; PGE2 agonist 20 nM; graded per Table 21; read-out: IC50 (nM) EP4 cAMP. As to the method: HEK293 cells overexpressing hEP4 were cultured in growth medium (GM: MEM (Gibco™, 11095080)/10% HI FBS (Gibco™, 10082147)/1% penicillin/streptomycin). Before the experiment, the growth medium was removed, and starvation medium (HBSS (Gibco™ 14025076)/10% GM) was added. Thereafter, the cells were incubated for 4 hours. HEK293 cells harboring hEP4 were detached from the culture dish with a non-enzymatic cell dissociation buffer (Gibco™, 15040066). The cells were resuspended in assay buffer (AB: HBSS, 0.1% BSA stabilizer, 0.5 mM IBMX, 5 mM HEPES).
as §1, with “plate (Corning®,” for “plate (Corning™,”, “solution: 100” for “solution: 1”, “of 20 nM” for “of 400 pM”, “PGE2 (20 nM” for “PGE2 (400 pM”, “for 18.5” for “for 12”
as §2, with “compared” for “relative”, “slope” for “slopes”

T1 sequence (P43116 whole entry): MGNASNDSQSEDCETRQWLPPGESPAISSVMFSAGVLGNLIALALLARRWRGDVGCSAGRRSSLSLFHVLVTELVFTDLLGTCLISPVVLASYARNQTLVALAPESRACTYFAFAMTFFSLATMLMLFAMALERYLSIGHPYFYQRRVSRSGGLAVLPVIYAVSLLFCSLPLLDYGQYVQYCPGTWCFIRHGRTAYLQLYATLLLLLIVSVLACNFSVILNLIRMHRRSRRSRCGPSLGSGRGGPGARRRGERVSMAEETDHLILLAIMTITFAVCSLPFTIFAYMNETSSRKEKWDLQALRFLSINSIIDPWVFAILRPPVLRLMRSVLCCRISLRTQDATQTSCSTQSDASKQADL

Turning to `Cc1sc(C)c(C(=O)N[C@H]2CC3(C2)C[C@H](C(=O)O)C3)c1Cc1ccc(-c2ccccc2)cc1` (single isomer, unassigned) [Example 1a], the half-maximal inhibitory concentration (IC50) at hEP2 and on hEP4 was more than 10000 nM in each case.

Turning to `Cc1sc(C)c(C(=O)N[C@H]2CC3(C2)C[C@H](C(=O)O)C3)c1Cc1ccc(-c2ccccc2)cc1` (single isomer, unassigned) [Example 1b], the IC50 (usually the concentration that inhibits the measured activity by half) is 500 to 5000 nM at hEP2 and less than 500 nM on hEP4.

On to `COc1cc(F)cc(-c2ccc(Cc3c(C)sc(C)c3C(=O)N[C@H]3CC4(C3)C[C@H](C(=O)O)C4)cc2)c1` (single isomer, unassigned) [Example 34a], for which the figures for the IC50 on hEP2 and on hEP4 were 5000 to 10000 nM and 500 to 5000 nM, respectively.

Take `COc1cc(F)cc(-c2ccc(Cc3c(C)sc(C)c3C(=O)N[C@H]3CC4(C3)C[C@H](C(=O)O)C4)cc2)c1` (single isomer, unassigned) [Example 34b]: the IC50 at hEP2 and at hEP4 was less than 500 nM throughout.

Regarding `O=C(N[C@H]1CC2(C1)C[C@H](C(=O)O)C2)c1csc2ccn(Cc3ccc(-c4ccccc4)cc3)c12` (single isomer, unassigned) [Example 79a], the 50% inhibitory concentration (IC50) at hEP2 and on hEP4 was 500 to 5000 nM throughout.

Consider `O=C(N[C@H]1CC2(C1)C[C@H](C(=O)O)C2)c1csc2ccn(Cc3ccc(-c4ccccc4)cc3)c12` (single isomer, unassigned) [Example 79b], for which the IC50 on hEP2 and at hEP4 was less than 500 nM each time.

Regarding `Cc1sc2ccn(Cc3ccc(-c4ccccc4)cc3)c2c1C(=O)N[C@H]1CC2(C1)C[C@H](C(=O)O)C2` (single isomer, unassigned) [Example 80a], the IC50 at hEP2 was 500 to 5000 nM; at hEP4 it was more than 10000 nM.

Regarding `Cc1sc2ccn(Cc3ccc(-c4ccccc4)cc3)c2c1C(=O)N[C@H]1CC2(C1)C[C@H](C(=O)O)C2` (single isomer, unassigned) [Example 80b], the IC50 on hEP4 is less than 500 nM.

`Cc1sc(C)c(C(=O)NC2CC3(C2)CC(C(=O)O)C3)c1Cc1ccc(-c2ccccc2)cc1` (stereo not drawn) [Example 1, 6-(4-([1,1′-biphenyl]-4-ylmethyl)-2,5-dimethylthiophene-3-carboxamido)spiro[3.3]heptane-2-carboxylic acid]: the IC50 at hEP2 is 500 to 5000 nM; at hEP4, less than 500 nM.

As for `Cc1ccc(Cc2c(C)sc(C)c2C(=O)NC2CC3(C2)CC(C(=O)O)C3)cc1` (stereo not drawn) [Example 2, 6-(2,5-dimethyl-4-(4-methylbenzyl)thiophene-3-carboxamido)spiro[3.3]heptane-2-carboxylic acid], the IC50 on hEP2 and at hEP4 was more than 10000 nM throughout.

Turning to `Cc1sc(C)c(C(=O)NC2CC3(C2)CC(C(=O)O)C3)c1Cc1cccc(-c2ccccc2)c1` (stereo not drawn) [Example 3, 6-(4-([1,1′-biphenyl]-3-ylmethyl)-2,5-dimethylthiophene-3-carboxamido)spiro[3.3]heptane-2-carboxylic acid], the IC50 on hEP2 was more than 10000 nM; on hEP4 it was 5000 to 10000 nM.

On to `Cc1sc(C)c(C(=O)NC2CC3(C2)CC(C(=O)O)C3)c1Cc1ccccc1-c1ccccc1` (stereo not drawn) [Example 4, 6-(4-([1,1′-biphenyl]-2-ylmethyl)-2,5-dimethylthiophene-3-carboxamido)spiro[3.3]heptane-2-carboxylic acid], for which the concentration for half-maximal inhibition (IC50) at hEP2 and on hEP4 was more than 10000 nM each time.

For the compound `Cc1sc(C)c(C(=O)NC2CC3(C2)CC(C(=O)O)C3)c1Cc1ccc(Oc2ccccc2)cc1` (stereo not drawn) [Example 5, 6-(2,5-dimethyl-4-(4-phenoxybenzyl)thiophene-3-carboxamido)spiro[3.3]heptane-2-carboxylic acid], the values for the IC50 on hEP2 and on hEP4 were more than 10000 nM and 5000 to 10000 nM, respectively.

For the compound `Cc1sc(C)c(C(=O)NC2CC3(C2)CC(C(=O)O)C3)c1CCc1ccc(-c2ccccc2)cc1` (stereo not drawn) [Example 6, 6-(4-(2-([1,1′-biphenyl]-4-yl)ethyl)-2,5-dimethylthiophene-3-carboxamido)spiro[3.3]heptane-2-carboxylic acid], the IC50 at hEP2 and on hEP4 was more than 10000 nM throughout.

With `Cc1sc(C)c(C(=O)NC2CC3(C2)CC(C(=O)O)C3)c1Cc1ccc(-c2ccccc2)cc1F` (stereo not drawn) [Example 7, 6-(4-((3-fluoro-[1,1′-biphenyl]-4-yl)methyl)-2,5-dimethylthiophene-3-carboxamido)spiro[3.3]heptane-2-carboxylic acid], the IC50 on hEP2 was 500 to 5000 nM; at hEP4, less than 500 nM.

Take `Cc1sc(C)c(C(=O)NC2CC3(C2)CC(C(=O)O)C3)c1Cc1ccc(-c2ccccc2)c(N)c1` (stereo not drawn) [Example 8, 6-(4-((2-amino-[1,1′-biphenyl]-4-yl)methyl)-2,5-dimethylthiophene-3-carboxamido)spiro [3.3]heptane-2-carboxylic acid]: the IC50 on hEP2 is more than 10000 nM; on hEP4, 500 to 5000 nM.

For the compound `Cc1sc(C)c(C(=O)NC2CC3(C2)CC(C(=O)O)C3)c1Cc1ccc(N2CCOCC2)cc1` (stereo not drawn) [Example 9, 6-(2,5-dimethyl-4-(4-morpholinobenzyl)thiophene-3-carboxamido)spiro[3.3]heptane-2-carboxylic acid], the 50% inhibitory concentration (IC50) at hEP2 and at hEP4 was more than 10000 nM throughout.

Take `Cc1sc(C)c(C(=O)c2ccc(-c3ccccc3)cc2)c1C(=O)NC1CC2(C1)CC(C(=O)O)C2` (stereo not drawn) [Example 10, 6-(4-([1,1′-biphenyl]-4-carbonyl)-2,5-dimethylthiophene-3-carboxamido)spiro[3.3]heptane-2-carboxylic acid]: the IC50 on hEP2 was more than 10000 nM; on hEP4, 500 to 5000 nM.

Consider `Cc1sc(C)c(C(O)c2ccc(-c3ccccc3)cc2)c1C(=O)NC1CC2(C1)CC(C(=O)O)C2` (stereo not drawn) [Example 11, 6-(4-([1,1′-biphenyl]-4-yl(hydroxy)methyl)-2,5-dimethylthiophene-3-carboxamido)spiro[3.3]heptane-2-carboxylic acid], for which the IC50 is more than 10000 nM at hEP2 and less than 500 nM at hEP4.

For `COC(c1ccc(-c2ccccc2)cc1)c1c(C)sc(C)c1C(=O)NC1CC2(C1)CC(C(=O)O)C2` (stereo not drawn) [Example 12, 6-(4-([1,1′-biphenyl]-4-yl(methoxy)methyl)-2,5-dimethylthiophene-3-carboxamido)spiro[3.3]heptane-2-carboxylic acid], the half-maximal inhibitory concentration (IC50) at hEP2 and on hEP4 was more than 10000 nM each time.

Consider `O=C(NC1CC2(C1)CC(C(=O)O)C2)c1cscc1Cc1ccc(-c2ccccc2)cc1` (stereo not drawn) [Example 13, 6-(4-([1,1′-biphenyl]-4-ylmethyl)thiophene-3-carboxamido)spiro[3.3]heptane-2-carboxylic acid], for which the IC50 at hEP2 and on hEP4 was 500 to 5000 nM throughout.

In the case of `Cc1scc(Cc2ccc(-c3ccccc3)cc2)c1C(=O)NC1CC2(C1)CC(C(=O)O)C2` (stereo not drawn) [Example 14, 6-(4-([1,1′-biphenyl]-4-ylmethyl)-2-methylthiophene-3-carboxamido)spiro[3.3]heptane-2-carboxylic acid], the IC50 on hEP2 and at hEP4 was 500 to 5000 nM each time.

For the compound `O=C(NC1CC2(C1)CC(C(=O)O)C2)c1csc(Br)c1Cc1ccc(-c2ccccc2)cc1` (stereo not drawn) [Example 15, 6-(4-([1,1′-biphenyl]-4-ylmethyl)-5-bromothiophene-3-carboxamido)spiro[3.3]heptane-2-carboxylic acid], the IC50 at hEP2 and on hEP4 was less than 500 nM throughout.
